In general, inhibition refers to the share of the control response that was lost under treatment. In general, IC50 refers to the point on the concentration scale where inhibition reaches its midpoint. A word on the melting point: it is the temperature, or range, at which the solid turns liquid.

The source of these data is patent US8263606B2 (Xenon Pharmaceuticals Inc., priority 2008, dated 2012).

A value given as a limit tells only on which side of the number the result lay.

The test system of data set [1] is inactivated state of the channel of interest (sodium channel). Description: Electrophysiological assay (whole cell voltage clamp, in vitro). The data set is classed as cell-based. To be noted: affinity for the inactivated state of the channel of interest. On the procedure:
Cells expressing the channel of interest are cultured in DMEM growth media (Gibco) with 0.5 mg/mL G418, +/−1% PSG, and 10% heat-inactivated fetal bovine serum at 37° C. and 5% CO2. For electrophysiological recordings, cells are plated on 10 mm dishes.
Whole cell recordings are examined by established methods of whole cell voltage clamp (Bean et al., op. cit.) using an Axopatch 200B amplifier and Clampex software (Axon Instruments, Union City, Calif.). All experiments are performed at ambient temperature. Electrodes are fire-polished to resistances of 2-4 Mohms Voltage errors and capacitance artifacts are minimized by series resistance compensation and capacitance compensation, respectively. Data are acquired at 40 kHz and filtered at 5 kHz. The external (bath) solution consists of: NaCl (140 mM), KCl (5 mM), CaCl2 (2 mM), MgCl2 (1 mM), HEPES (10 mM) at pH 7.4. The internal (pipette) solution consists of (in mM): NaCl (5), CaCl2 (0.1), MgCl2 (2), CsCl (10), CsF (120), HEPES (10), EGTA (10), at pH 7.2.
To estimate the steady-state affinity of compounds for the resting and inactivated state of the channel (Kr and Ki, respectively), 12.5 ms test pulses to depolarizing voltages from −60 to +90 mV from a holding potential of −120 m V is used to construct current-voltage relationships (I-V curves). A voltage near the peak of the IV-curve (−30 to 0 m V) is used as the test pulse throughout the remainder of the experiment. Steady-state inactivation (availability) curves are then constructed by measuring the current activated during a 8.75 ms test pulse following 1 second conditioning pulses to potentials ranging from −120 to −10 m V.
The steady-state voltage-dependence of binding of a compound to a sodium channel is determined by measuring the blockage of the ionic current at two holding potentials. Binding to rested-state channels is determined by using a holding potential of −120 mV, so that maximal availability is achieved. Binding to inactivated-state channels is evaluated at a holding potential such that only 10% of the channels are available to open. The membrane potential is held at this voltage for at least 10 seconds so that drug binding can equilibrate.
The apparent dissociation constant at each voltage is calculated with the equation:
[formula] where Kd is the dissociation constant (either Kr or Ki), and [Drug] is the concentration of the test compound.
The Example numbers provided in Table 3 correspond to the Examples herein: […]

A further data set concerns the target CYP3A4 (Homo sapiens, UniProt P08684). Kind of data set: Cytochrome P450 (CYP450) Inhibition Assay, CYP3A4 (Vivid fluorescence, BOMCC substrate). The settings on record: human, P450 Baculosomes (recombinant CYP3A4), probe BOMCC (Vivid substrate).
The test system of the next data set is sodium channel. Description: Guanidine influx assay (14C-guanidine radiotracer flux, in vitro). The data set is classed as cell-based, human or rat. The settings on record: guanidine influx assay using a known cell line that expresses a sodium channel. The procedure, abridged:
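Aconitine holds channels open while 14C-guanidine enters human or rat sodium-channel-expressing cells in choline-substituted low-sodium saline, with test agent present at ambient temperature. Retained tracer is scintillation-counted and IC50 fitted by a four-parameter logistic model.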

Chain of CYP3A4 (P08684 whole entry): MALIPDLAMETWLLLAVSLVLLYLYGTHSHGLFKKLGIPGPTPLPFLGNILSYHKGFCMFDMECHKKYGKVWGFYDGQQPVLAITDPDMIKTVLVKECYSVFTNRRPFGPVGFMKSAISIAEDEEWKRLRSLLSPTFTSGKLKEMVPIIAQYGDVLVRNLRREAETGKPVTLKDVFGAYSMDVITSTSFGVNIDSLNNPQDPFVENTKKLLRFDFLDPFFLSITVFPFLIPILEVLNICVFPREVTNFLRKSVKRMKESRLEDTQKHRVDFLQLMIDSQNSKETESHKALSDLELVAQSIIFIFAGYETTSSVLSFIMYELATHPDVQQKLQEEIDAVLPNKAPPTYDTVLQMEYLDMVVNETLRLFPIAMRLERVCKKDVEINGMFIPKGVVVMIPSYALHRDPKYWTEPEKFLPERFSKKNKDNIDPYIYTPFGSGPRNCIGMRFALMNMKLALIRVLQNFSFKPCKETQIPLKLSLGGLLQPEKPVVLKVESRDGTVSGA

In data set [1], `O=C1N(Cc2ncccc2C(F)(F)F)c2ccccc2C12OCOc1cc3c(cc12)OCCO3` (stereo not shown) [Example 2.54, 1′-{[3-(trifluoromethyl)pyridin-2-yl]methyl}-7,8-dihyrdospiro[1,4-dioxino[2,3-g][1,3]benzodioxine-4,3′-indol]-2′(1′H)-one] yielded a Ki above 300 nM. Also, the inhibition at 10 µM on CYP3A4 is below 50%.

On to `CCCCCN1C(=O)[C@]2(COc3cc4c(cc32)OCCO4)c2ccccc21` [Example 7.4, (R)-1′-pentyl-2,3-dihydrospiro[furo[2,3-g][1,4]benzodioxine-8,3′-indol]-2′(1′H)-one], for which, in data set [1], the Ki is above 300 nM. Besides, the inhibition at 10 µM on CYP3A4 was above 50%.

With `COCCCCN1C(=O)C2(COc3cc4c(cc32)OCCO4)c2ccccc21` (stereo not shown) [Example 7.8], in data set [1], the Ki was below 300 nM. The inhibition at 10 µM on CYP3A4 is below 50%.

Regarding `O=C1N(Cc2cccnc2)c2ccccc2C12COc1cc3c(cc12)OCCO3` (stereo not shown) [Example 10.1, 1′-(pyridin-3-ylmethyl)-2,3-dihydrospiro[furo[2,3-g][1,4]benzodioxine-8,3′-indol]-2′(1′H)-one], in data set [1], the Ki is above 300 nM.

Turning to `CN(C)c1ccc(CN2C(=O)C3(COc4cc5c(cc43)OCCO5)c3ccccc32)nc1` (stereo not shown) [Example 33.4, 1′-{[5-(dimethylamino)pyridin-2-yl]methyl}-2,3-dihydrospiro[furo[2,3-g][1,4]benzodioxine-8,3′-indol]-2′(1′H)-one], the melting point was in the range of 229 to 236 °C. The IC50 in the data set with sodium channel was in the range of 1 to 100 nM. Moreover, on CYP3A4, the inhibition at 10 µM is above 50%.

In turn, `O=C1N(Cc2ccc(=O)[nH]c2)c2ccccc2C12COc1cc3c(cc12)OCCO3` (stereo not shown) [Example 35, 1′-[(6-oxo-1,6-dihydropyridin-3-yl)methyl]-2,3-dihydrospiro[furo[2,3-g][1,4]benzodioxine-8,3′-indol]-2′(1′H)-one] returned a melting point of 249 to 250 °C. For the same compound, in the data set with sodium channel, the IC50 was 100 to 1000 nM. In addition, on CYP3A4, the inhibition at 10 µM was below 50%.

In turn, `O=C1N(Cc2cnc(O)nc2)c2ccccc2C12COc1cc3c(cc12)OCCO3` (stereo not shown) [Example 35.1, 1′-[(2-hydroxypyrimidin-5-yl)methyl]-2,3-dihydrospiro[furo[2,3-g][1,4]benzodioxine-8,3′-indol]-2′(1′H)-one] registered a melting point above 250 °C. In the data set with sodium channel, the IC50 fell in the range of 1000 to 10000 nM. Moreover, the inhibition at 10 µM at CYP3A4 is below 50%.

Take `Cn1cc(CN2C(=O)C3(COc4cc5c(cc43)OCCO5)c3ccccc32)ccc1=O` (stereo not shown) [Example 36, 1′-[(1-methyl-6-oxo-1,6-dihydropyridin-3-yl)methyl]-2,3-dihydrospiro[furo[2,3-g][1,4]benzodioxine-8,3′-indol]-2′(1′H)-one]: the melting point lay in the range of 205 to 207 °C. For the same compound, in the data set with sodium channel, the IC50 is 100 to 1000 nM. Moreover, the inhibition at 10 µM on CYP3A4 was below 50%.

On to `Nc1ccc(CN2C(=O)C3(COc4cc5c(cc43)OCCO5)c3ccccc32)cn1` (stereo not shown) [Example 37, 1′-[(6-aminopyridin-3-yl)methyl]-2,3-dihydrospiro[furo[2,3-g][1,4]benzodioxine-8,3′-indol]-2′(1′H)-one], for which the melting point fell in the range of 117 to 119 °C. Besides, the IC50 in the data set on sodium channel lay within 1 to 100 nM. Moreover, the inhibition at 10 µM at CYP3A4 was below 50%.

`O=C1N(Cc2ccc(N/C=N\O)nc2)c2ccccc2C12COc1cc3c(cc12)OCCO3` (stereo not shown) [Example 38, N′-hydroxy-N-{5-[(2′-oxo-2,3-dihydrospiro[furo[2,3-g][1,4]benzodioxine-8,3′-indol]-1′(2′H)-yl)methyl]pyridin-2-yl}imidoformamide] registered a melting point of 231 to 232 °C. In addition, the IC50 in the data set on sodium channel is 1 to 100 nM. Moreover, the inhibition at 10 µM on CYP3A4 is below 50%.

Turning to `O=C1N(Cc2ccc3ncnn3c2)c2ccccc2C12COc1cc3c(cc12)OCCO3` (stereo not shown) [Example 39, 1′-([1,2,4]triazolo[1,5-a]pyridin-6-ylmethyl)-2,3-dihydrospiro[furo[2,3-g][1,4]benzodioxine-8,3′-indol]-2′(1′H)-one], the melting point fell in the range of 207 to 209 °C. The IC50 with sodium channel was 1 to 100 nM. On CYP3A4, the inhibition at 10 µM was above 50%.

`N#Cc1cccc(CN2C(=O)C3(COc4cc5c(cc43)OCCO5)c3ccccc32)n1` (stereo not shown) [Example 41, 6-[(2′-oxo-2,3-dihydrospiro[furo[2,3-g][1,4]benzodioxine-8,3′-indol]-1′(2′H)-yl)methyl]pyridine-2-carbonitrile] displayed a melting point of 213 to 215 °C. Moreover, the IC50 in the data set on sodium channel was in the range of 1 to 100 nM. Further, at CYP3A4, the inhibition at 10 µM was below 50%.

`COc1ccc(CN2C(=O)C3(COc4cc5onc(N)c5cc43)c3ccccc32)cc1` (stereo not shown) [Example 44, 3-amino-1′-(4-methoxybenzyl)spiro[furo[3,2-f][1,2]benzisoxazole-5,3′-indol]-2′(1′H)-one]: the melting point lay in the range of 214 to 216 °C. Moreover, the IC50 with sodium channel fell in the range of 100 to 1000 nM. On CYP3A4, the inhibition at 10 µM is above 50%.

Compound `Nc1noc2cc3c(cc12)C1(CO3)C(=O)N(Cc2ccccn2)c2ccccc21` (stereo not shown) [Example 44.1, 3-amino-1′-(pyridin-2-ylmethyl)spiro[furo[3,2-f][1,2]benzisoxazole-5,3′-indol]-2′(1′H)-one] came in with a melting point of 190 to 192 °C. In addition, the IC50 with sodium channel is 100 to 1000 nM. The inhibition at 10 µM at CYP3A4 is below 50%.

Consider `Nc1noc2cc3c(cc12)C1(CO3)C(=O)N(C[C@H]2CCCO2)c2ccccc21` (stereo partly drawn) [Example 44.2, 3-amino-1′-[(2R)-tetrahydrofuran-2-ylmethyl]spiro[furo[3,2-f][1,2]benzisoxazole-5,3′-indol]-2′(1′H)-one], for which the melting point lay within 116 to 119 °C. Besides, the IC50 in the data set with sodium channel lay in the range of 1000 to 10000 nM. The inhibition at 10 µM on CYP3A4 was below 50%.

With `Nc1noc2cc3c(cc12)C1(CO3)C(=O)N(Cc2ccccc2C(F)(F)F)c2ccccc21` (stereo not shown) [Example 44.3, 3-amino-1′-[2-(trifluoromethyl)benzyl]spiro[furo[3,2-f][1,2]benzisoxazole-5,3′-indol]-2′(1′H)-one], the melting point was 262 to 264 °C. The IC50 in the data set on sodium channel was 1000 to 10000 nM. The inhibition at 10 µM at CYP3A4 was above 50%.

On to `N#Cc1cc2c(cc1O)OCC21C(=O)N(C[C@H]2CCCO2)c2ccccc21` (stereo partly drawn) [Example 45, 6-hydroxy-2′-oxo-1′-[(2R)-tetrahydrofuran-2-ylmethyl]-1′,2′-dihydrospiro[1-benzofuran-3,3′-indole]-5-carbonitrile], for which the melting point fell in the range of 218 to 221 °C. For the same compound, the IC50 in the data set on sodium channel is 1000 to 10000 nM. Also, on CYP3A4, the inhibition at 10 µM is below 50%.

`N#Cc1cc2c(cc1O)OCC21C(=O)N(Cc2ccccc2C(F)(F)F)c2ccccc21` (stereo not shown) [Example 45.1, 6-hydroxy-2′-oxo-1′-[2-(trifluoromethyl)benzyl]-1′,2′-dihydrospiro[1-benzofuran-3,3′-indole]-5-carbonitrile] registered a melting point of 122 to 124 °C. Further, the IC50 in the data set with sodium channel is 1000 to 10000 nM. The inhibition at 10 µM at CYP3A4 was below 50%.

Regarding `O=C1N(Cc2ccccc2C(F)(F)F)c2ccccc2C12COc1cc3[nH]ncc3cc12` (stereo not shown) [Example 46, 1′-[2-(trifluoromethyl)benzyl]-1H-spiro[furo[3,2-f]indazole-5,3′-indol]-2′(1′H)-one], the melting point fell in the range of 124 to 126 °C. For the same compound, in the data set on sodium channel, the IC50 fell in the range of 1000 to 10000 nM. On CYP3A4, the inhibition at 10 µM is above 50%.

Turning to `O=C1N(Cc2ccccn2)c2ccccc2C12COc1cc3[nH]ncc3cc12` (stereo not shown) [Example 46.1, 1′-(pyridin-2-ylmethyl)-1H-spiro[furo[3,2-f]indazole-5,3′-indol]-2′(1′H)-one], the melting point lay in the range of 117 to 119 °C. Further, the IC50 in the data set with sodium channel lay in the range of 100 to 1000 nM. Also, on CYP3A4, the inhibition at 10 µM was below 50%.

Turning to `O=C1N(Cc2ncccc2C(F)(F)F)c2ccccc2C12COc1cc3[nH]ncc3cc12` (stereo not shown) [Example 46.2, 1′-((3-(trifluoromethyl)pyridin-2-yl)methyl)-1,6-dihydrospiro[furo[3,2-f]indazole-5,3′-indolin]-2′-one], the melting point lay in the range of 152 to 154 °C. The IC50 with sodium channel fell in the range of 100 to 1000 nM. Also, the inhibition at 10 µM on CYP3A4 is above 50%.
